These results are taken from article PMC11988454, “Discovery of synthetic small molecules targeting the central regulator of Salmonella pathogenicity” (Science Advances, 2025).

In one series the test system is T3SS-1 (SipA secretion). Briefly: SipA-NLuc secretion assay (NanoLuc luciferase). It is filed as cell-based, S. Typhimurium. The conditions noted are these: Salmonella enterica, read-out: IC50 SipA secretion.
In the next series the test system is S. Typhimurium SL1344. Briefly: Growth in LB medium (OD at 600 nm). The class given is cell-based. Conditions: C26 at different concentrations.
For a further series, the system named is HeLa cells. Briefly: In vitro toxicity, ApoTox-Glo assay. The class given is cell-based.
The test system of series [1] is T3SS-1 (SipA-HiBiT injection into HeLa cells). Briefly: SipA-HiBiT injection assay (split NanoLuc HiBiT/LgBiT). The class given is cell-based, S. Typhimurium. The method, then:
SipA injection assay was performed using the split-Nanoluc (HiBiT/LgBiT) system as described previously ([37], [38]). In brief, NanoLuc is split into two parts: LgBiT, comprising 10 of the 11 β strands of the luciferase, and HiBiT, a short peptide with high affinity to LgBiT, contributing the missing β strand to make a functional luciferase. S. Typhimurium strains expressing SipA-HiBiT were grown in LB supplemented with 0.3 M NaCl and either compound at different concentrations or 1% (v/v) DMSO. Cultures were incubated at 37°C with shaking at 180 rpm until an OD600 of 0.9 was reached. Bacteria were then pelleted and washed twice with Hanks’ balanced salt solution (HBSS). The bacterial suspension was diluted to obtain a multiplicity of infection (MOI) of 50 and then used to infect the LgBiT-expressing HeLa cell. Luminescence was measured using a Tecan Sparc Multimode reader.

Series [2] has as its system S. Typhimurium invasion of MDCK cells. Nature of the series: Invasion assay into MDCK cells. The class given is cell-based. The conditions noted are these: C26 100 μM, MOI 5; DMSO control 6.85. The method, then: MDCK (NBL-2) cells were seeded in a 24-well plate at a density of 10^5 cells per well in 1 ml of MEM (Gibco) and grown for 5 to 6 days, to allow polarization. Cells were washed every 2 days with fresh medium. After 5 days, each well contained ~1.8 × 10^6 MDCK cells. Bacteria were grown as for the invasion assay of HeLa cells and diluted to obtain an MOI of 5. The plate was centrifuged for 3 min at 300g to synchronize the infection and then incubated for 25 min at 37°C and 5% (v/v) CO2 to allow Salmonella invasion into MDCK cells. The quantification of invasiveness was carried out as described above for HeLa cells.

The target in series [3] is T1, HilD (Salmonella typhimurium, UniProt E1WAC0).
T1 construct: endogenous in cells; host or cells: S. Typhimurium SL1344 strain PhilA-sfGFP
T1 sequence (E1WAC0 whole entry): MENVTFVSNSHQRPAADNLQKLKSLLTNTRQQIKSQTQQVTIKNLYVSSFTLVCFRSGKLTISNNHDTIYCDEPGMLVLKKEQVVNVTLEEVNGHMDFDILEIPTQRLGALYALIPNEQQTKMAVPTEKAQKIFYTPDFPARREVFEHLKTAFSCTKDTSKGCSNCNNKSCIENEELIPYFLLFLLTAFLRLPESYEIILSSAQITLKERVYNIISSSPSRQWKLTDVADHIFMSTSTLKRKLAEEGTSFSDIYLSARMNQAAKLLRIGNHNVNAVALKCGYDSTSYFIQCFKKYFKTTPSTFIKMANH
Briefly: Whole-cell HilD activity assay (PhilA-sfGFP activation). The class given is cell-based, S. Typhimurium. The method, then:
(§1) A whole-cell reporter gene assay was used to quantify HilD transcriptional activity. Strain PhilA-sfGFP and the isogenic ΔhilD PhilA-sfGFP were used for this purpose. Cultures were performed in 1 ml of LB supplemented with 0.3 M NaCl. Compounds at different concentrations or 1% (v/v) DMSO were added to the corresponding tubes. Cultures were incubated at 37°C and 180 rpm for 5 hours. Cells were pelleted, resuspended in 100 μl of PBS, and then transferred into a 96-well black clear-bottom plate (Thermo Fisher Scientific, USA). Fluorescence intensity was measured with a Tecan Spark microplate reader with an excitation wavelength of 485 nm and an emission wavelength of 510 nm. Dose-response curves and IC50 values were calculated using CDD Vault.

Another series concerns HilC and RtsA. Briefly: Whole-cell PhilA activation by rhamnose-induced hilC or rtsA in ΔhilD backgrounds. Conditions: C26 100 μM, rhamnose 2 mM. It is filed as cell-based, S. Typhimurium.
Description: Next, we investigated the selectivity of C26 for HilD using the whole-cell PhilA activation assay. In the absence of HilD, the pool of HilC and RtsA is insufficient to activate the expression of hilA. Therefore, assessing the sensitivity of HilC and RtsA to C26 requires PhilA to be activated in a HilD-independent manner. To create such a condition, we used a plasmid-encoded hilC or rtsA under the control of a rhamnose-inducible promoter.
as §1

In series [4] the target is T2, HilD (Salmonella typhimurium, UniProt P0CL08).
T2 construct: His6-SUMO (N, cleaved yes); made in house; host or cells: E. coli C41(DE3)
T2 sequence (P0CL08 whole entry): as the sequence (E1WAC0 whole entry) above
Nature of the series: SEC-MALS of HilD. Set-up: species or system S. Typhimurium. The method, then:
SEC-MALS experiments were performed using a Superdex 75 Increase 10/300 GL column (Cytiva) coupled to a miniDAWN Tristar Laser photometer (Wyatt) and a RI-2031 differential refractometer (JASCO). HilD (100 μM) was incubated with 1% (v/v) of either DMSO or C26 (10 mM dissolved in DMSO) for 20 min at r.t. Fifty microliters of HilD samples was loaded onto the SEC column, equilibrated with SEC buffer, and separated using a flow rate of 0.5 ml min^−1. Data analysis was carried out with the ASTRA v7.3.0.18 software (Wyatt).
(SEC sorts molecules by how far they enter the pores of the column.)

A further series addresses T3, HilD dimer (Salmonella typhimurium, UniProt P0CL08).
T3 construct: His6-SUMO (N, cleaved yes); made in house; host or cells: E. coli C41(DE3)
Nature of the series: BS3 cross-linking of HilD. It is filed as biochemical, S. Typhimurium. The conditions noted are these: oleic acid 50 and 100 μM; C26 up to 200 μM. The method, then:
BS^3 cross-linking of HilD was performed as previously described ([39]). In summary, HilD (10 μM) was first incubated with C26 or oleic acid in SEC buffer for 20 min at r.t., with a final DMSO concentration of 1% (v/v). HilD was then cross-linked by incubation with 0.2 mM BS^3 (Thermo Fisher Scientific, Pierce, A39266) at r.t. for 1 hour, before the reaction was quenched by the addition of 50 mM Tris (pH 7.5). Samples were analyzed using SDS-PAGE and visualized by silver staining.

For series [5], the system named is S. enterica clinical isolates (SipA secretion through T3SS-1). Nature of the series: Plasmid-based SipA secretion assay in clinical isolates. Conditions: C26 100 μM, 75 strains. It is filed as cell-based. The method, then:
The plasmid pT10-SipA-NLuc was electroporated into electrocompetent cells of S. enterica clinical isolates. Bacteria at an initial OD600 of 0.02 were grown for 5 hours in 1 ml of LB supplemented with 0.3 M NaCl, kanamycin (50 μg/ml), and either compound at 100 μM or 1% (v/v) DMSO. Cultures were pelleted, and then 25 μl of the supernatant was transferred to a 384-well plate to measure luminescence as previously described.

T3 sequence (P0CL08 whole entry): as the sequence (E1WAC0 whole entry) above
Description for S. Typhimurium SL1344: Experiment performed in a 96-well plate. Growth assessed by measuring the OD at 600 nm (N = 3 biological replicates).
Description for T3SS-1 (SipA secretion): (A) NanoLuc Luciferase assay to screen T3SS-1 inhibitors in 384-well plates. Compounds were screened at a final concentration of 100 μM (N = 3 replicates). Cultures with strains sipA-NLuc and ΔinvA, sipA-NLuc with 1% (v/v) DMSO were used as positive and negative controls, respectively. […] 100% relative SipA secretion corresponds to the luminescence intensity of the WT strain grown in the presence of 1% (v/v) DMSO. The relative SipA secretion of the ∆invA mutant was considered as the bottom (N = 2 technical replicates within N = 3 biological replicates).
For compound screening, 50 μl of overnight cultures of Salmonella with an approximate optical density at 600 nm (OD600) of 2 were diluted in fresh LB medium to an OD600 of 0.05 and added to 384-well plates (Nunc MaxiSorp, white) containing 5 nmol of screening compound per well, for a final compound concentration of 100 μM. The plates were incubated for 5 hours at 37°C with shaking at 180 rpm, upon which the bacteria were removed. The plates were washed with phosphate-buffered saline (PBS) [137 mM NaCl, 2.7 mM KCl, 10 mM Na2HPO4, and 1.8 mM KH2PO4 (pH 7.4)] using a Tecan HydroSpeed plate washer. Residual PBS after washing was removed, and 50 μl of NanoLuc working solution (NanoGlo, Promega) was added to the wells. Luminescence was then measured using a Tecan Sparc Multimode reader. […]

As usually defined, the IC50 is the point on the concentration scale where inhibition reaches its midpoint. As to `CN(CC(=O)NCc1ccc2c(c1)OCO2)Cc1ccc(Br)s1` [C26, N-(benzo[d][1,3]dioxol-5-ylmethyl)-2-{[(5-bromothiophen-2-yl)methyl](methyl)amino}acetamide], the IC50 with T3SS-1 (SipA secretion) worked out at 29.2 µM; at HilD [3] it was 16.9 µM. In the series on S. Typhimurium SL1344, the “growth of S. Typhimurium” value is recorded as “did not impair the growth”. The TC50 viability entry in the series with HeLa cells (12 hours exposure) is “could not be calculated because of low toxicity levels”; with HeLa cells (18 hours exposure), 98 µM. In series [1] (C26 100 μM added to bacterial culture, 1 hour postinfection, MOI 50), the “residual SipA injection” value was found to be 11%. Besides, in series [1] (C26 100 μM only in infection inoculum, 1 hour postinfection, MOI 50), the “SipA injection, % of the untreated bacteria” value was determined as 48%. Besides, the “SipA injection into HeLa cells over a 5-hour infection time” value in series [1] (C26 added to bacterial culture) is listed as “dose-dependent decrease”. The “Invasion of MDCK cells (%), of the original inoculum” value in series [2] was 1.6%. For the same compound, the “PhilA activation with hilC and/or rtsA as sole activators” value with HilC and RtsA is “did not lead to a reduction of PhilA activation”. Moreover, the “Molecular Mass of HilD, Measured” value at HilD [4] (HilD + C26 100 μM, theoretical dimer 70.4) is listed as 69.8 kDa. At HilD [4] (equimolar C26 (100 μM)), the “oligomerization state of HilD” value is “no effect on the oligomerization state”. On HilD dimer, the “levels of cross-linked HilD dimer” value was “did not affect the levels of cross-linking”. Further, in series [5], the “sensitivity of clinical isolates (SipA secretion)” value is “all sensitive”.
